In patent US5100907A, “Hydantoin esters” (Lonza, Inc., priority 1990, dated 1992):

Assays:
Staphylococcus species a = experiment: Preservative challenge test against Staphylococcus species a; format: cell-based; conditions: end of 14 day period
Method: (§1) Microbiological challenge tests were also conducted with the lauric and oleic esters (I), representing molecules having C12 and C18 aliphatic fatty acid chain length moieties, respectively.
(§2) These preservative challenge tests were used to determine the biocidal performance of these two esters (I) in aqueous solution and dispersion formulations inoculated with a given one of two test organisms, previously isolated from a contaminated calcium carbonate (CaCO3) dispersion, i.e. gram-positive bacteria, designated Staphylococcus species a and Staphylococcus species b, as compared to three known biocides or preservatives, designated as DANTOGARD (trademark), Tektamer 38 (1,2-dibromo-2,4-dicyanobutane) and Nuodex PMA-18.
(§3) The solution formulation was represented by the inclusion of the test sample as preservative system in deionized water, and the dispersion formulation was represented by the inclusion of the test sample as preservative system in a CaCO3 aqueous dispersion (identified as Hydrocarb 60), the latter typifying a dispersed pigment medium, e.g. as used in a paint or other industrial dispersion or slurry. The antimicrobial activity of the test samples was evaluated at individually selective concentrations.
(§4) All these liquid samples were stored at room temperature until the start of the tests. The test organisms were maintained or nutrient agar at 4° C. and subcultured in nutrient broth (Difco), and a 24 hour culture incubated at 35° C. was used for the testing over a challenge test time period of 14 days.
(§5) The test formulations were prepared per a standardized procedure, by placing 20 ml aliquots of the stored sample into sterile test tubes, and then adding 0.1 ml of a standardized 10^6 suspension of a 24 hour culture in nutrient broth. Plate counts were taken immediately to determine the initial level of the microbial population, and the containers were incubated at 20°-25° C. Plate counts were retaken at 1, 3, 7 and 14 days, with the final reductions being calculated from the 14 days results.

Staphylococcus species b = experiment: Preservative challenge test against Staphylococcus species b; format: cell-based; conditions: end of 14 day period
Method: as §1, §2, §3, §4, §5

Escherichia coli = experiment: Antimicrobial study against Escherichia coli (gram-negative bacteria); format: cell-based; conditions: methylolated C8/10 10,800 ppm, methylolated lauric 11,400 ppm, DMDMH 3,000 ppm, others 14,700 ppm
Aspergillus niger = experiment: Antimicrobial study against Aspergillus niger (mold); format: cell-based; conditions: methylolated C8/10 10,800 ppm, methylolated lauric 11,400 ppm, DMDMH 3,000 ppm, others 14,700 ppm
Pseudomonas aeruginosa = experiment: Antimicrobial study against Pseudomonas aeruginosa (gram-negative bacteria); format: cell-based; conditions: methylolated C8/10 10,800 ppm, methylolated lauric 11,400 ppm, DMDMH 3,000 ppm, others 14,700 ppm
[1] = Total available formaldehyde (TF) and free formaldehyde (FF) levels of esters (I); format: physicochemical; conditions: for FF (free formaldehyde) / TF (total available formaldehyde): neat ester, Table 3
Excerpt: Thus, whether the formaldehyde content is chemically bonded to the hydantoin moiety or is free formaldehyde (FF) in solution, e.g., in water as formaldehyde or methylene glycol [CH2 (OH)2 ], it remains available for biocidal action. Due to this direct relation, the weight percent TF in a given preparation of the ester (I), e.g. a cosmetic formulation, can be predicted accurately, regardless of the level of dilution.

[2] = Solubilities of esters in typical solvents / appearance of samples in water; format: physicochemical; conditions: 25° C.
[3] = Surface tension tests (cmc, Gibbs' Free Energy of Micellation); format: physicochemical
Method: Surface tension tests were conducted as to the relationship between the fatty acid aliphatic chain length, i.e. number of carbon atoms, in the esters (I), and their performance as surfactants. The length of the hydrophobic chain of a molecule is considered the major contributing factor to the critical micelle concentration (cmc) value of a surfactant. This value is obtained from surface tension measurement data. The lower the cmc, the more readily the material will form micelles.
The Gibbs' Free Energy of Micellation (ΔG°cmc) and the ΔG°cmc per --CH2 -- can be determined if the cmc is known.
The ΔG°cmc is a calculated value obtained by Equation 1.
ΔG°cmc =2.303RT(log cmc-log[water]) (Eq. 1)
The ΔG°cmc per --CH2 -- value is obtained from the slope of the straight line curve formed from a plot of ΔG°cmc versus the number of carbon atoms in the lipophilic chain.
The cmc values were based on surface tension tests conducted with a tensiometer (Cenco-DuNoug Precision Model #70535, direct reading model) to determine the upward surface tension at the liquid-air surface of the test ester/water solution. The methods used to calibrate the tensiometer, calculate the "correction factor" (used to correct for the difference between the apparent and true surface tension), and collect data, were conducted as described in the manual for the instrument. Sodium lauryl sulfate (SLS) and distilled water were used as reference samples.
On completing data collection, plots of the surface tension (dynes) versus -log of the concentration (mols/liter) were prepared, using only the "corrected" surface tension value, obtained by applying the noted "correction factor" in each case. The […] was found by multiplying the "apparent" surface tension by a calculated correction factor.
The critical micelle concentration (cmc) for each sample was determined by locating the point in the curve where the surface tension first begins to level off, per a known procedure.

[4] = Physical properties of methylolated MHEDMH esters (I): viscosity; format: physicochemical; conditions: at 25° C.
[5] = calcium carbonate aqueous dispersions
[6] = 1% active concentration in water
[7] = among esters (I) examined, Table 6

| SMILES | effectiveness as preservative (Staphylococcus species a; water) | effectiveness as preservative (Staphylococcus species b; water) | Colony Count (Escherichia coli; Day 0) | Colony Count (Escherichia coli; Day 1) | Colony Count (Escherichia coli; Day 2) | Colony Count (Escherichia coli; Day 3) | Colony Count (Escherichia coli; Day 7) | Colony Count (Aspergillus niger; Day 0) | Colony Count (Aspergillus niger; Day 1) | Colony Count (Aspergillus niger; Day 2) | Colony Count (Aspergillus niger; Day 3) | Colony Count (Aspergillus niger; Day 7) | Colony Count (Pseudomonas aeruginosa; Day 0) | Colony Count (Pseudomonas aeruginosa; Day 1) | Colony Count (Pseudomonas aeruginosa; Day 2) | Colony Count (Pseudomonas aeruginosa; Day 3) | Colony Count (Pseudomonas aeruginosa; Day 7) | FF (free formaldehyde) [1] | TF (total available formaldehyde) [1] | Solubility in isopropyl alcohol [2] | other results |
| --- | --- | --- | --- | --- | --- | --- | --- | --- | --- | --- | --- | --- | --- | --- | --- | --- | --- | --- | --- | --- | --- |
| CCCCCCCCCCCC(=O)OCCN1C(=O)N(CO)C(=O)C1(C)C [Methylolated Lauric Ester, 2-(3-hydroxymethyl-5,5-dimethyl-1,3-diazacyclopentane-2,4-dion-1-yl)-ethylester of lauric acid] | effective as preservatives in water | effective as preservatives in water | TNC | TNC | < 0.01 × 1,000 | < 0.01 × 1,000 | < 0.01 × 1,000 | 400 × 1,000 | 2 × 1,000 | < 0.01 × 1,000 | < 0.01 × 1,000 | < 0.01 × 1,000 | TNC | < 0.01 × 1,000 | < 0.01 × 1,000 | < 0.01 × 1,000 | < 0.01 × 1,000 | 0.2 Wt. % | 8.0 Wt. % | S (>10 g/100 g Solvent) | Solubility in mineral oil [2]: S (>10 g/100 g Solvent); surface active properties [3]: particularly favorable surface active properties |
| CCCCCCCC/C=C\CCCCCCCC(=O)OCCN1C(=O)N(CO)C(=O)C1(C)C [Methylolated Oleic Ester, 2-(3-hydroxymethyl-5,5-dimethyl-1,3-diazacyclopentane-2,4-dion-1-yl)-ethylester of oleic acid] | effective as preservatives in water | effective as preservatives in water | 4,000 × 1,000 | < 0.01 × 1,000 | < 0.01 × 1,000 | < 0.01 × 1,000 | < 0.01 × 1,000 | 2,000 × 1,000 | 0.5 × 1,000 | < 0.01 × 1,000 | < 0.01 × 1,000 | < 0.01 × 1,000 | TNC | < 0.01 × 1,000 | < 0.01 × 1,000 | < 0.01 × 1,000 | < 0.01 × 1,000 | 0.2 Wt. % | 6.5 Wt. % | S (>10 g/100 g Solvent) | effectiveness as preservative (Staphylococcus species a; [5]): effective as a preservative in calcium carbonate aqueous dispersions; effectiveness as preservative (Staphylococcus species b; [5]): effective as a preservative in calcium carbonate aqueous dispersions; Calculated TF [1, 6]: 0.065 Wt. %; Determined FF [1, 6]: 0.0112 Wt. %; Ratio FF/TF [1, 6]: 0.172; TF ([1]; at a concentration of 1.0%): 0.4 wt. %; Solubility in mineral oil [2]: S (>10 g/100 g Solvent); surface active properties [3]: particularly favorable surface active properties; cmc, relative rank [3, 7]: the lowest cmc values; ΔG°cmc, relative rank [3, 7]: the lowest ΔG°cmc values; ΔG°cmc (Gibbs' Free Energy of Micellation) ([3]; calculated from cmc by Eq. 1, T=298° K.): -6.962 kcal/mol; cmc (critical micelle concentration) ([3]; ester/water solution): 4.0 × 10^-4 mol dm^-3; Viscosity [4]: 501 cts |
